Assay results reported in patent US20040214803A1, “Use of vitamin d3 analogue for the treatment of autoimmune diabetes” (priority 2001, published 2004).

Columns and labels:
[1] = system: pancreatic islets of NOD mice; test: Insulitis scoring and immunohistology of pancreas sections; type: in vivo, mouse
Experimental: Pancreata were snap-frozen in Tissue Tek (Miles Laboratories, Elkhart, Ind.), and 5-μm-thick sections stained with hematoxilin and eosin. Insulitis score was quantified as follows: 0, no insulitis; 1, peri-insulitis; 2, insulitis in <50% of the islet; 3, insulitis in >50% of the islet. A mean score was calculated from 40-50 islets per individual pancreas. In addition, pancreas cryostat sections were stained with biotinylated mAb directed against CD4, CD8, B220, CD11b (all purchased from PharMingen), or CD11c (N418; American Type Culture Collection, Manassas, Va.), followed by streptavidin-peroxidase conjugate. […]
NOD female mice were treated daily with Compound A (0.03 μg/Kg body weight per os) or vehicle from 8 to 12 or 16 weeks of age and glycemia levels were monitored until 38 weeks of age. […]
FIG. 2. […] The results refer to the mean values ±SE of 8 mice/group, except for 1,25-dihydroxy-16,23Z-diene-26,27-hexafluoro-19-nor vitamin D3-treated mice where three mice were scored. The P values were calculated by Mann-Whitney U test. The severity of the infiltrate is shown in the right panel Islets from the same mice were scored for absence of insulitis (□, peri-insulitis (□), moderate insulitis with <50% infiltration of the islets ( ? ) , and severe insulitis, with >50% of infiltration of the islets (▪). […]

[2] = Serum calcium levels after Compound A treatment; type: in vivo, mouse; details: 0.03 μg/Kg per os daily for 4 days before LPS injection, NOD mice
Experimental: In this experiment the capacity of Compound A to inhibit LPS-induced IL-12 and IFN-γ production in vivo is tested. Mice were pre-treated with vehicle or with 0.03 μg/Kg Compound A administered per os daily for 4 days before LPS injection.
FIG. 3. […] Compound A (0.03 μg/Kg) was administered orally in miglyol to NOD mice 72, 48, 24 and 1 h before LPS injection. IFN-γ, IL-12p75 and serum calcium levels were quantified 3 h post LPS injection. Bars represent the mean ±SE of 10 mice/group. The P values were calculated by Mann-Whitney U test (* indicates P<0.05 vs. vehicle-treated NOD mice).

## C[C@H](C/C=C\C(O)(C(F)(F)F)C(F)(F)F)C1=CC[C@H]2/C(=C/C=C3C[C@@H](O)C[C@H](O)C3)CCC[C@]12C [Compound A, 1,25-dihydroxy-16,23Z-diene-26,27-hexafluoro-19-nor vitamin D3]
[1]; at 30 weeks of age, compared to vehicle-treated NOD mice at 30 weeks
  functional islet β cells (positive staining for insulin): more frequent
[1]; treated 8 to 16 weeks, analysed at 30 weeks of age, compared to 8 weeks old NOD mice
  score and severity of insulitis: similar
[2]
  hypercalcemia (serum calcium levels): did not induce hypercalcemia
